Measurements as given in ChEMBL document CHEMBL3045690, “Ligand-based drug design studies using predictive pharmacophore model generation on 4H-1,2,4-triazoles as AT1 receptor antagonists” (Med Chem Res, 2012).

Biological target: T1, Type-1 angiotensin II receptor (Oryctolagus cuniculus, UniProt P34976)
T1 sequence (P34976 whole entry): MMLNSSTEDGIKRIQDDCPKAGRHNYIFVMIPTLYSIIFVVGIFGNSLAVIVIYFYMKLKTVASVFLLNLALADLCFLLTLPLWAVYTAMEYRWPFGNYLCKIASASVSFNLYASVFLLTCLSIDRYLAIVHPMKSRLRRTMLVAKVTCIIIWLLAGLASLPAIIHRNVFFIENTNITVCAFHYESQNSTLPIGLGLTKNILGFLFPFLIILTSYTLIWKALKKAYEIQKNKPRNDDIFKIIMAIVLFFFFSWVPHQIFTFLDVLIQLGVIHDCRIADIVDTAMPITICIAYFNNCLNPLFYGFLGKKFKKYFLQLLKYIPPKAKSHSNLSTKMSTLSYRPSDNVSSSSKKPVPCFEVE
Assay: Antagonist activity at AT1 receptor in Oryctolagus cuniculus (rabbit) aorta

Row | IC50 [nM] | SMILES
1 | 11 | CCCCc1nnc([S+]([O-])Cc2ccc(Cl)cc2)n1Cc1ccc(NC(=O)c2ccccc2-c2nn[nH]n2)cc1 (stereo unspecified)
2 | 50 | CCCCc1nnc([S+]([O-])Cc2ccc(OC)cc2)n1Cc1ccc(NC(=O)c2ccccc2-c2nn[nH]n2)cc1 (stereo unspecified)
3 | 57 | CCCCc1nnc(C(=O)NCc2ccccc2)n1Cc1ccc(NC(=O)c2ccccc2-c2nnn[nH]2)cc1
4 | 89 | CCCCc1nnc(C(=O)N(C)Cc2ccccc2)n1Cc1ccc(NC(=O)c2ccccc2-c2nnn[nH]2)cc1
5 | 350 | CCCCc1nnc(C(=O)N(C)c2ccccc2)n1Cc1ccc(NC(=O)c2ccccc2-c2nnn[nH]2)cc1
6 | 890 | CCCCc1nnc(SC(C)(C)C)n1Cc1ccc(NC(=O)c2ccccc2C(=O)O)cc1
7 | 310 | CCCCc1nnc(SC)n1Cc1ccc(NC(=O)c2ccccc2-c2nnn[nH]2)cc1
8 | 72 | CCCCc1nnc(SCC(C)C)n1Cc1ccc(NC(=O)c2ccccc2-c2nnn[nH]2)cc1
9 | 36 | CCCCc1nnc(SCC2CCCCC2)n1Cc1ccc(NC(=O)c2ccccc2-c2nnn[nH]2)cc1
10 | 100 | CCCCc1nnc(Sc2ccccc2)n1Cc1ccc(NC(=O)c2ccccc2-c2nnn[nH]2)cc1
11 | 7.1 | CCCCc1nnc(SCc2ccccc2)n1Cc1ccc(NC(=O)c2ccccc2-c2nnn[nH]2)cc1
12 | 35 | CCCCc1nnc(SCCc2ccccc2)n1Cc1ccc(NC(=O)c2ccccc2-c2nnn[nH]2)cc1
13 | 17 | CCCCc1nnc(SCc2ccccc2C)n1Cc1ccc(NC(=O)c2ccccc2-c2nnn[nH]2)cc1
14 | 110 | CCCCc1nnc(SCc2ccccc2Cl)n1Cc1ccc(NC(=O)c2ccccc2-c2nnn[nH]2)cc1
15 | 98 | CCCc1nnc(SCc2ccc(Cl)cc2)n1Cc1ccc(NC(=O)c2ccccc2-c2nnn[nH]2)cc1
16 | 94 | CCCCCc1nnc(SCc2ccc(Cl)cc2)n1Cc1ccc(NC(=O)c2ccccc2-c2nnn[nH]2)cc1
17 | 130 | CCCCc1nnc(SCc2ccccc2[N+](=O)[O-])n1Cc1ccc(NC(=O)c2ccccc2-c2nnn[nH]2)cc1
18 | 6.6 | CCCCc1nnc(SCc2ccc([N+](=O)[O-])cc2)n1Cc1ccc(NC(=O)c2ccccc2-c2nnn[nH]2)cc1

Row | IC50 [nM] | SMILES
19 | 94 | CCCCc1nnc(SCc2cccc(OC)c2)n1Cc1ccc(NC(=O)c2ccccc2-c2nnn[nH]2)cc1
20 | 120 | CCCCc1nnc(SCc2ccc(C(=O)OC)cc2)n1Cc1ccc(NC(=O)c2ccccc2-c2nnn[nH]2)cc1
21 | 24 | CCCCc1nnc(SCc2ccc(C(=O)O)cc2)n1Cc1ccc(NC(=O)c2ccccc2-c2nnn[nH]2)cc1
22 | 90 | CCCCc1nnc(SCc2ccccc2C(=O)OC)n1Cc1ccc(NC(=O)c2ccccc2-c2nnn[nH]2)cc1
23 | 1.5 | CCCCc1nnc(SCc2ccccc2C(=O)O)n1Cc1ccc(NC(=O)c2ccccc2-c2nnn[nH]2)cc1
24 | 36 | CCCCc1nnc(SCc2ccccc2CO)n1Cc1ccc(NC(=O)c2ccccc2-c2nnn[nH]2)cc1
25 | 1.4 | CCCCc1nnc(SCc2ccccc2-c2nnn[nH]2)n1Cc1ccc(NC(=O)c2ccccc2-c2nnn[nH]2)cc1
26 | 400 | CCCCc1nnc(S(C)(=O)=O)n1Cc1ccc(NC(=O)c2ccccc2-c2nnn[nH]2)cc1
27 | 48 | CCCCc1nnc(S(=O)(=O)Cc2ccc(Cl)cc2)n1Cc1ccc(NC(=O)c2ccccc2-c2nnn[nH]2)cc1
28 | 8.9 | CCCCc1nnc([S+]([O-])Cc2ccc([N+](=O)[O-])cc2)n1Cc1ccc(NC(=O)c2ccccc2-c2nnn[nH]2)cc1 (stereo unspecified)
29 | 10 | CCCCc1nnc([S+]([O-])Cc2ccccc2C(=O)O)n1Cc1ccc(NC(=O)c2ccccc2-c2nnn[nH]2)cc1 (stereo unspecified)
30 | 370 | CCCCc1nnc(OCc2ccccc2)n1Cc1ccc(NC(=O)c2ccccc2-c2nnn[nH]2)cc1
31 | 63 | CCCCc1nnc(OCCc2ccccc2)n1Cc1ccc(NC(=O)c2ccccc2-c2nnn[nH]2)cc1
32 | 28 | CCCCc1nnc(NCc2ccccc2)n1Cc1ccc(NC(=O)c2ccccc2-c2nnn[nH]2)cc1
33 | 140 | CCCCc1nnc(NCc2ccc(Cl)cc2)n1Cc1ccc(NC(=O)c2ccccc2-c2nnn[nH]2)cc1
34 | 780 | CCCCc1nnc(NCc2ccc(OC)cc2)n1Cc1ccc(NC(=O)c2ccccc2-c2nnn[nH]2)cc1
35 | 860 | CCCCc1nnc(S)n1Cc1ccc(NC(=O)c2ccccc2C(=O)O)cc1
36 | 320 | CCCSc1nnc(Cc2ccccc2)n1Cc1ccc(NC(=O)c2ccccc2C(=O)O)cc1
